Consider seven compounds from ChEMBL document CHEMBL1743141, “Membrane transporters in drug development” (Nat Rev Drug Discov, 2010).

Type in all cases: ADME
For data set [1], the target named is T1, Solute carrier organic anion transporter family member 1A2 (Homo sapiens, UniProt P46721).
T1 sequence (P46721 whole entry): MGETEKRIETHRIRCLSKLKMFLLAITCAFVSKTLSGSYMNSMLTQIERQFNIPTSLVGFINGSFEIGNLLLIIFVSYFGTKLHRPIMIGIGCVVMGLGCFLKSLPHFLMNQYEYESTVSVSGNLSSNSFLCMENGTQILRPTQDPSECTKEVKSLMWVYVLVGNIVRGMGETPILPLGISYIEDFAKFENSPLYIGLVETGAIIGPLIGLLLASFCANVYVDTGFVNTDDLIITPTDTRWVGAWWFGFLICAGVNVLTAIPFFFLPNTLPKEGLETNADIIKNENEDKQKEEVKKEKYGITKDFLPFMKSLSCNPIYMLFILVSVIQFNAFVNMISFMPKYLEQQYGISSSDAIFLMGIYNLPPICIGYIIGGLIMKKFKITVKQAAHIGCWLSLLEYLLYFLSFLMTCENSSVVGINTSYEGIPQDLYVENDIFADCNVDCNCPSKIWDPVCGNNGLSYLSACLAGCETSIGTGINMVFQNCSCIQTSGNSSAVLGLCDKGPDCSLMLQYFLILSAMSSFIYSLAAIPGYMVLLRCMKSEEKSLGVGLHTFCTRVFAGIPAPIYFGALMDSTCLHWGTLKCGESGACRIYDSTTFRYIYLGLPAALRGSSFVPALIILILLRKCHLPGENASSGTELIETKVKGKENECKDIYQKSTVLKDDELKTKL
The data set can be described thus: Inhibitors of transporters of clinical importance in the absorption and disposition of drugs, OATP1A2.

Data set [2] addresses T2, Solute carrier organic anion transporter family member 1B1 (Homo sapiens, UniProt Q9Y6L6).
T2 sequence (Q9Y6L6 whole entry): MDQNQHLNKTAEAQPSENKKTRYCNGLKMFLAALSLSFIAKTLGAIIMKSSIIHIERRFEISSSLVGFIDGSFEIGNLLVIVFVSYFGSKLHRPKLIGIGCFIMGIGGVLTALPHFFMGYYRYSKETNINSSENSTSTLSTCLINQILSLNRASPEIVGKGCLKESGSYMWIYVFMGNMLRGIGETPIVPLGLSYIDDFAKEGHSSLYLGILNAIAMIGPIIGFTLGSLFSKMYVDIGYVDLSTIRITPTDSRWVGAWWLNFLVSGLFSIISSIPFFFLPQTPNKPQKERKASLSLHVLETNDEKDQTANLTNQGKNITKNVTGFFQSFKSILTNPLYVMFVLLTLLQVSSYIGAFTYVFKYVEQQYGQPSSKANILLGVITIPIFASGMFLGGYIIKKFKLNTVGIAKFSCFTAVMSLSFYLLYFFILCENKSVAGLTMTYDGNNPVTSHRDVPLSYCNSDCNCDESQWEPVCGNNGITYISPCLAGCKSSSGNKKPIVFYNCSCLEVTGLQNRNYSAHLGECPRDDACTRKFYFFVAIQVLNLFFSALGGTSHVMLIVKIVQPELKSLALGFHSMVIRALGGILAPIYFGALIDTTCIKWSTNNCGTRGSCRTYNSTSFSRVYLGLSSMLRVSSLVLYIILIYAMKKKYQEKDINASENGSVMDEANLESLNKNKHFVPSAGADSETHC
The data set can be described thus: Inhibitors of transporters of clinical importance in the absorption and disposition of drugs, OATP1B1.

Data set [3] concerns the target T2, Solute carrier organic anion transporter family member 1B1. Put plainly: Substrates of transporters of clinical importance in the absorption and disposition of drugs, OATP1B1.
In data set [4] the target is ATP-binding cassette sub-family C member 3 (Homo sapiens, UniProt O15438). Put plainly: Substrates of transporters of clinical importance in the absorption and disposition of drugs, MPR3.
Data set [5] has as its target T3, Solute carrier organic anion transporter family member 1B3 (Homo sapiens, UniProt Q9NPD5).
T3 sequence (Q9NPD5 whole entry): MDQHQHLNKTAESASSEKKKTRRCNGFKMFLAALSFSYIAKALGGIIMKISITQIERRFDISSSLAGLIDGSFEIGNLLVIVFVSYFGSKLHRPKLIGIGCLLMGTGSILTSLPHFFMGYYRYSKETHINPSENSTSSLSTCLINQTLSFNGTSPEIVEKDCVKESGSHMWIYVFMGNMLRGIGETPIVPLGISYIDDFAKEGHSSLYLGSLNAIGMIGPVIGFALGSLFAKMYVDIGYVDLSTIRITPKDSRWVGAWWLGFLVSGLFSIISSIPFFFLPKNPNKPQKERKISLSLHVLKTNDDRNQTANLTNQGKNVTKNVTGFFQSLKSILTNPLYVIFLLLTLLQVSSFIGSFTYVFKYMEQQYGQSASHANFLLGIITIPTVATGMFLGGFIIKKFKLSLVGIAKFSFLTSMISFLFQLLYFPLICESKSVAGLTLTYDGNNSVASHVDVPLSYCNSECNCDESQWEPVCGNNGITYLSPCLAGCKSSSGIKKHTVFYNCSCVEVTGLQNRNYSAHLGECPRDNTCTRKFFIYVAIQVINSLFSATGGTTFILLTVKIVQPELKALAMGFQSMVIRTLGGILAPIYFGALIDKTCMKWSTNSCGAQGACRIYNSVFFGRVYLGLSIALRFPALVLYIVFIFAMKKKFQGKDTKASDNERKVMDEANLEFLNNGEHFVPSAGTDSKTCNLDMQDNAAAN
Put plainly: Substrates of transporters of clinical importance in the absorption and disposition of drugs, OATP1B3.

In data set [6] the target is T4, Broad substrate specificity ATP-binding cassette transporter ABCG2 (Homo sapiens, UniProt Q9UNQ0).
T4 sequence (Q9UNQ0 whole entry): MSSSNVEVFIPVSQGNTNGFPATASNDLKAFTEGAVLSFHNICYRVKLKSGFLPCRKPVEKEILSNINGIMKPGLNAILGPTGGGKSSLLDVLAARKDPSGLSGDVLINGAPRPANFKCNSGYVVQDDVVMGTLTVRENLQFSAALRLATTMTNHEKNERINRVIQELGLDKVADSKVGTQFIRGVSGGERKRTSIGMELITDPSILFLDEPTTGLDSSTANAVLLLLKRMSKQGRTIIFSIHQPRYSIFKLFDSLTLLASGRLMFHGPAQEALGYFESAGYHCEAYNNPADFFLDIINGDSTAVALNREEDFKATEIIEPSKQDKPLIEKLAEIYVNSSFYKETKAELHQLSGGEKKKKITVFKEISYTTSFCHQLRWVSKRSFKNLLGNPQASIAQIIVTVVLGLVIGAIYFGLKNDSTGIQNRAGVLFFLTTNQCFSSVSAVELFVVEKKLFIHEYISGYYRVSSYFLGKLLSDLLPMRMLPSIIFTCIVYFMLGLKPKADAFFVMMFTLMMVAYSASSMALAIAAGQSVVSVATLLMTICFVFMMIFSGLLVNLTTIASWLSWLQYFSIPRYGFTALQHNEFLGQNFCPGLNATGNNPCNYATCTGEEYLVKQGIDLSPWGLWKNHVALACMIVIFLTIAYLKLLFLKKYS
Put plainly: Inhibitors of transporters of clinical importance in the absorption and disposition of drugs, BCRP.

Data set [7] deals with T5, Solute carrier organic anion transporter family member 2B1 (Homo sapiens, UniProt O94956).
T5 sequence (O94956 whole entry): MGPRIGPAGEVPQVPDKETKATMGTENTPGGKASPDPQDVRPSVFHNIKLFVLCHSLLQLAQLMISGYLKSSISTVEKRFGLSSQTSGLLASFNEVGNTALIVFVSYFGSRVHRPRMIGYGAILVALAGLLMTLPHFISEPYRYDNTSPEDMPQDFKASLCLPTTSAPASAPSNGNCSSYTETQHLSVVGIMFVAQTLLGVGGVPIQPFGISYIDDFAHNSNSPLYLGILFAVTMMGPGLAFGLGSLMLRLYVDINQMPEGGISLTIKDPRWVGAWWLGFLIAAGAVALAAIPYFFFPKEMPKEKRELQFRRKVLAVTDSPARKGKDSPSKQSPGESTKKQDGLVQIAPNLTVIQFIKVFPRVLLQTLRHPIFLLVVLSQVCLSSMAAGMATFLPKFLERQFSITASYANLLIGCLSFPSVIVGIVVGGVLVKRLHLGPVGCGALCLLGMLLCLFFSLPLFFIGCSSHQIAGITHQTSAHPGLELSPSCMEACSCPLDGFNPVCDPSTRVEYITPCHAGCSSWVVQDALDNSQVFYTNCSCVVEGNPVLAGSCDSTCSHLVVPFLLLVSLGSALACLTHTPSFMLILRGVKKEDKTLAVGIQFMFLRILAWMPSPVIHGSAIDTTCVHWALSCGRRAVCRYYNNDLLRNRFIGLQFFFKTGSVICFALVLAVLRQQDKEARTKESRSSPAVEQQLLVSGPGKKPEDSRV
The data set can be described thus: Substrates of transporters of clinical importance in the absorption and disposition of drugs, OATP2B1.

For data set [8], the target named is T1, Solute carrier organic anion transporter family member 1A2. The data set can be described thus: Substrates of transporters of clinical importance in the absorption and disposition of drugs, OATP1A2.
Data set [9] deals with ATP-binding cassette sub-family C member 2 (Homo sapiens, UniProt Q92887). The data set can be described thus: Substrates of transporters of clinical importance in the absorption and disposition of drugs, MRP2.
Data set [10] concerns the target T4, Broad substrate specificity ATP-binding cassette transporter ABCG2. The data set can be described thus: Substrates of transporters of clinical importance in the absorption and disposition of drugs, BCRP.
The target of data set [11] is T6, ATP-binding cassette sub-family C member 4 (Homo sapiens, UniProt O15439).
T6 sequence (O15439 whole entry): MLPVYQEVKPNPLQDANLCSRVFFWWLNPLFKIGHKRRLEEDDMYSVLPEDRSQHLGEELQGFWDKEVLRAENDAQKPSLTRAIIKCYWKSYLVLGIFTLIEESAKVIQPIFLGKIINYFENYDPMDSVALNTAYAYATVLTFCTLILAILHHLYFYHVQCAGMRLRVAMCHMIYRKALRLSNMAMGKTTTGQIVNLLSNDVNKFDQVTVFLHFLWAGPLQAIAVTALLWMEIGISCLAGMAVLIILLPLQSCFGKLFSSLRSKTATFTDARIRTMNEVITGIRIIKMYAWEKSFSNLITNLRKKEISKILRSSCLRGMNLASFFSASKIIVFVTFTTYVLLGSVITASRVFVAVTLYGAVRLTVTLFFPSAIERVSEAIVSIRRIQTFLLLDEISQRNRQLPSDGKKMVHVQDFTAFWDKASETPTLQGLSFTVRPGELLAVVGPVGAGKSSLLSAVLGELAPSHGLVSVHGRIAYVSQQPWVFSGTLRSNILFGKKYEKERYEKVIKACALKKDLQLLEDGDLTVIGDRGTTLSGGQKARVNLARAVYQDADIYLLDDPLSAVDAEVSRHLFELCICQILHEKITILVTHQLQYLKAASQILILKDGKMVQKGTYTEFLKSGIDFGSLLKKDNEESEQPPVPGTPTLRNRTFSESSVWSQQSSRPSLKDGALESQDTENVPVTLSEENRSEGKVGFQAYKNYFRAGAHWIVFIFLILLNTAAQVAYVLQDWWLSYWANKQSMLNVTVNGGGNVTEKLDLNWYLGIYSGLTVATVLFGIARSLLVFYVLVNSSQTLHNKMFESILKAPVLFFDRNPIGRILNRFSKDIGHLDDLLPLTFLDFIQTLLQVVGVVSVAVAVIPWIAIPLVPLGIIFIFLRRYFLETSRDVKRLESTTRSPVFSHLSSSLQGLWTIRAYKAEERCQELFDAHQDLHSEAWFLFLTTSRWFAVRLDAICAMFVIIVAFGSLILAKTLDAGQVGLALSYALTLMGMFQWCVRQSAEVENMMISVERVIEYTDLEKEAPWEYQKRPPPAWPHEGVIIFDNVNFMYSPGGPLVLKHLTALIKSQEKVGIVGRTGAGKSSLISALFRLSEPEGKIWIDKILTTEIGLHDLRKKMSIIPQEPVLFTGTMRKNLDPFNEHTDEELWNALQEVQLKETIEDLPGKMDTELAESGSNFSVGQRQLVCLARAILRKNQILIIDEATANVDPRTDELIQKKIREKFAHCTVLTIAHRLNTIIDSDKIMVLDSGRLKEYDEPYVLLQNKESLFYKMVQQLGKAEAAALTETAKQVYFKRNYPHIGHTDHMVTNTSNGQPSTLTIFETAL
Put plainly: Substrates of transporters of clinical importance in the absorption and disposition of drugs, MRP4.

Sequence of ATP-binding cassette sub-family C member 3 (O15438 whole entry): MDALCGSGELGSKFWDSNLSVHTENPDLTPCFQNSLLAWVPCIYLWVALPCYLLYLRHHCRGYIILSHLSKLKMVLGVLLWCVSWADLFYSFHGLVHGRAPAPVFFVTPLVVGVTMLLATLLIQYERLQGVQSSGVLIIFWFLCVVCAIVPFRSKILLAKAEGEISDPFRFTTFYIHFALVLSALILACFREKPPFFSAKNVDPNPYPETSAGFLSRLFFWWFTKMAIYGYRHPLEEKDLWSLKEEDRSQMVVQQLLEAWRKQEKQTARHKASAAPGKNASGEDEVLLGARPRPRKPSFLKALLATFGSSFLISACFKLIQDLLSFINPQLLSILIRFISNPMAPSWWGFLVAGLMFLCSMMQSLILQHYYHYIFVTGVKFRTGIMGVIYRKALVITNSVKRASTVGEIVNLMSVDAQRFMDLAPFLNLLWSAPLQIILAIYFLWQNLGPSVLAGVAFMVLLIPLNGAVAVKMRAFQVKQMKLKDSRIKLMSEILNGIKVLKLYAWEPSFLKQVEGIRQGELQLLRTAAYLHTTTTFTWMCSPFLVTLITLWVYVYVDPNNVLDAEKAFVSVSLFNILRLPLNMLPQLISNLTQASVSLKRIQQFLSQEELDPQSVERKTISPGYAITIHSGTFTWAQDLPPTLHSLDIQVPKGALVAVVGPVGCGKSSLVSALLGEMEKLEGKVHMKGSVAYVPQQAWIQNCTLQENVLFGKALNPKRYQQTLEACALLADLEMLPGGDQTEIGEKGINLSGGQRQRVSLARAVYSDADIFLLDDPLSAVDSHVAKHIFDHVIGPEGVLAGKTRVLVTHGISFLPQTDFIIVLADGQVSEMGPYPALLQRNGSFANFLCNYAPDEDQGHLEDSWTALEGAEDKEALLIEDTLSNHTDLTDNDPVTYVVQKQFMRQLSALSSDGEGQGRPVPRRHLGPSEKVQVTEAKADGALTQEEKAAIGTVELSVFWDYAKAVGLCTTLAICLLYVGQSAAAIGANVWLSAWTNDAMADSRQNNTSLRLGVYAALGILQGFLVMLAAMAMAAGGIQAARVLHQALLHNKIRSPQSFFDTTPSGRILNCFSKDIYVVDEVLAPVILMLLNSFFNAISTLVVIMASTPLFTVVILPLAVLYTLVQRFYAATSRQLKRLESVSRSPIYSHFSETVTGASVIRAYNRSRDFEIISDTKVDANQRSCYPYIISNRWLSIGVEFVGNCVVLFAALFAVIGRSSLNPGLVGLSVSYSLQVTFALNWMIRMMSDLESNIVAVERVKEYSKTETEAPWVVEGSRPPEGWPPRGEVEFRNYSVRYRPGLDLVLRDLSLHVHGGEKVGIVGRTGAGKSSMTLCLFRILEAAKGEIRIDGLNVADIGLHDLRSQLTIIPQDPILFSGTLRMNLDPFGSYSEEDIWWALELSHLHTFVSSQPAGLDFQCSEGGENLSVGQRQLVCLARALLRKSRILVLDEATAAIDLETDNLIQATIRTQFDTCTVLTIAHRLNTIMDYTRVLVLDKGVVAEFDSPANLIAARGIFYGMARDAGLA
Sequence of ATP-binding cassette sub-family C member 2 (Q92887 whole entry): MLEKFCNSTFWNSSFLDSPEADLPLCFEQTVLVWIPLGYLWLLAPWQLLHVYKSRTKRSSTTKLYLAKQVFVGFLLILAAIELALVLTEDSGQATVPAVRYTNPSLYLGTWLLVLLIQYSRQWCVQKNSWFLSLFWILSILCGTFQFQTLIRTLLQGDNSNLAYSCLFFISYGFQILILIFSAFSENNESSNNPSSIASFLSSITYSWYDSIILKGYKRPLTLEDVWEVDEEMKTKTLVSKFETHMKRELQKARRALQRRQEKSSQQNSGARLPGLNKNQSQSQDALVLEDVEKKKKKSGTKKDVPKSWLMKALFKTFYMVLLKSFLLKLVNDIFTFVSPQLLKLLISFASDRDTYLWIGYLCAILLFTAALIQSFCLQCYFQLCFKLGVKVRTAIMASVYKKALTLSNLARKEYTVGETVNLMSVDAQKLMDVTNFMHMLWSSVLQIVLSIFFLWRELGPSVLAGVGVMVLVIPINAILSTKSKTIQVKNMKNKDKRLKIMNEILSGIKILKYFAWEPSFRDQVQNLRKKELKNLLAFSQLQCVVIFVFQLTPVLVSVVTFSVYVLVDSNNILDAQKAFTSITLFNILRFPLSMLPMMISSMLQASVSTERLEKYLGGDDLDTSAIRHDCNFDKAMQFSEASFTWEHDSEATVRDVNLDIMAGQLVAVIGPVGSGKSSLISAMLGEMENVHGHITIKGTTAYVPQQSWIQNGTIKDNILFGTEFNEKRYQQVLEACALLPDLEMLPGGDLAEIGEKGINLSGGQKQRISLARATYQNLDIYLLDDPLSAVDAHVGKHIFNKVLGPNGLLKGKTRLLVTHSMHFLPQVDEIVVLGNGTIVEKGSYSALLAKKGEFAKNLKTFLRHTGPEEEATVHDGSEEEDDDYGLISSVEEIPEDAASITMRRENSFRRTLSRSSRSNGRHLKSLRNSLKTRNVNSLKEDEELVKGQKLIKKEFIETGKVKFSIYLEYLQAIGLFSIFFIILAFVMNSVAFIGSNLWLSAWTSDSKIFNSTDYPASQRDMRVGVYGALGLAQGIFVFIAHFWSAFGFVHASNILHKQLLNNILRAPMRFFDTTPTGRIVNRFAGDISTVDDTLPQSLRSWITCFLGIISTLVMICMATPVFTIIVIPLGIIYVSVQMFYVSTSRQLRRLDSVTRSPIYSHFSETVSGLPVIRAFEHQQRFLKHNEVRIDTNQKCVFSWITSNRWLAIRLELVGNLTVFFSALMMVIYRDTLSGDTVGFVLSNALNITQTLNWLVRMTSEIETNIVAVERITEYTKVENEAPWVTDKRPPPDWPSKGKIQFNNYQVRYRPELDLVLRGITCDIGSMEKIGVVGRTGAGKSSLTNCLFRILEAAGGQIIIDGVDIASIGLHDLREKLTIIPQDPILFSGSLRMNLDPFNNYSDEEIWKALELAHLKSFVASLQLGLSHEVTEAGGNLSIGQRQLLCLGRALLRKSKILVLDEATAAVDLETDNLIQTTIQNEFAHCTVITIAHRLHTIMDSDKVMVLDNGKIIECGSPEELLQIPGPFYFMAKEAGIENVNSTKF

`CC(C)(C)NC(=O)[C@@H]1C[C@@H]2CCCC[C@@H]2CN1C[C@@H](O)[C@H](Cc1ccccc1)NC(=O)[C@H](CC(N)=O)NC(=O)c1ccc2ccccc2n1`: the Activity entry in data set [1] and in data set [2] was “transporter inhibitor” throughout.
As for `C[C@]12CC[C@@H]3c4ccc(O)cc4CC[C@H]3[C@@H]1CC[C@@H]2O[C@@H]1O[C@H](C(=O)O)[C@@H](O)[C@H](O)[C@H]1O` [ESTRADIOL 17B GLUCURONIDE], the Activity entry in data set [3], in [4] and in [5] was “transporter substrate” throughout.
For the compound `C[C@]12CC[C@@H]3c4ccc(O)cc4CC[C@H]3[C@@H]1CC[C@@H]2O` [ESTRADIOL], in [6], the Activity entry is listed as “transporter inhibitor”.
With `C[C@]12CC[C@@H]3c4ccc(O)cc4CC[C@H]3[C@@H]1CCC2=O` [ESTRONE], in data set [6], the Activity result was “transporter inhibitor”.
Take `CC(C)(C(=O)O)c1ccc(C(O)CCCN2CCC(C(O)(c3ccccc3)c3ccccc3)CC2)cc1` (configuration not stated) [FEXOFENADINE]: the Activity result in data set [4], in data set [7], in [8] and in data set [5] was “transporter substrate” throughout.
As to `COc1ccc2c3c([nH]c2c1)[C@H](C=C(C)C)N1C(=O)[C@@H]2CCCN2C(=O)[C@@H]1C3` [FUMITREMORGIN], in [6], the Activity result is “transporter inhibitor”.
Turning to `CN(Cc1cnc2nc(N)nc(N)c2n1)c1ccc(C(=O)N[C@@H](CCC(=O)O)C(=O)O)cc1` [METHOTREXATE], the Activity entry in data set [9], in [4], in data set [8], in data set [10] and in [11] was “transporter substrate” throughout.
